This passage reports IC50 results from US10316049B2, “Tank-binding kinase inhibitor compounds” (Gilead Sciences, Inc., priority 2015, dated 2019).

SMILES strings stand for the structures.

For one experiment, the target named is T1, TBK1 (Homo sapiens, UniProt Q9UHD2).
T1 construct: TBK1 and IKKε were expressed and purified as full length recombinant proteins; made in house
T1 sequence (Q9UHD2 1-729): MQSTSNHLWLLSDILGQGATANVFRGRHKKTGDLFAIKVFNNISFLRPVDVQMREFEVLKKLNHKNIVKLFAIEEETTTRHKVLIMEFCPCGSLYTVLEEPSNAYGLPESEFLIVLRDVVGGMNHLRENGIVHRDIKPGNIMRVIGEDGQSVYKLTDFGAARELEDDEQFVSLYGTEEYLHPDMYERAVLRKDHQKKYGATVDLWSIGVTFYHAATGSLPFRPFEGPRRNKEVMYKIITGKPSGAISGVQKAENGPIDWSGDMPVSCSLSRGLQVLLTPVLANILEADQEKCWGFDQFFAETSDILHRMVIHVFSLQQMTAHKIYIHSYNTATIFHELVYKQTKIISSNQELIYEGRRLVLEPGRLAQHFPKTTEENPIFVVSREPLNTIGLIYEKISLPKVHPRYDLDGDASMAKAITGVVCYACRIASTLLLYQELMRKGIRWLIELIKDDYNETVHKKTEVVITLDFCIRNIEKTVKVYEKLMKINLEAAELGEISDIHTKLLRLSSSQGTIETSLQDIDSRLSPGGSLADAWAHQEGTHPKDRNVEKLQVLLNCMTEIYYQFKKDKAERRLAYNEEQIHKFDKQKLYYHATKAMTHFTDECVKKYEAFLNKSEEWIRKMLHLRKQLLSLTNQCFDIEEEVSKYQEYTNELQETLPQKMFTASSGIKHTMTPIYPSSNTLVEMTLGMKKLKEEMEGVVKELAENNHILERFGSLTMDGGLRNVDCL
The experiment in a line: TR-FRET enzymatic activity assay, TBK1. Also: full length recombinant TBK1 at 2.5 nM. It counts as biochemical. The essentials:
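TR-FRET detected phosphorylation of a biotinylated serine/threonine peptide using 125 nM streptavidin XL665 plus europium-labelled anti-phospho antibody. Reactions with full-length recombinant kinase ran 240 min at 25 °C before EDTA quench. Values are geometric-mean IC50s (n ≥ 4) from four-parameter dose-response fits against staurosporine and DMSO controls.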
A general note: Time-resolved FRET reads energy transfer from a long-lived donor to a nearby acceptor.

In the next experiment the target is T2, IKKε (Homo sapiens, UniProt Q14164).
T2 construct: TBK1 and IKKε were expressed and purified as full length recombinant proteins; made in house
T2 sequence (Q14164 1-716): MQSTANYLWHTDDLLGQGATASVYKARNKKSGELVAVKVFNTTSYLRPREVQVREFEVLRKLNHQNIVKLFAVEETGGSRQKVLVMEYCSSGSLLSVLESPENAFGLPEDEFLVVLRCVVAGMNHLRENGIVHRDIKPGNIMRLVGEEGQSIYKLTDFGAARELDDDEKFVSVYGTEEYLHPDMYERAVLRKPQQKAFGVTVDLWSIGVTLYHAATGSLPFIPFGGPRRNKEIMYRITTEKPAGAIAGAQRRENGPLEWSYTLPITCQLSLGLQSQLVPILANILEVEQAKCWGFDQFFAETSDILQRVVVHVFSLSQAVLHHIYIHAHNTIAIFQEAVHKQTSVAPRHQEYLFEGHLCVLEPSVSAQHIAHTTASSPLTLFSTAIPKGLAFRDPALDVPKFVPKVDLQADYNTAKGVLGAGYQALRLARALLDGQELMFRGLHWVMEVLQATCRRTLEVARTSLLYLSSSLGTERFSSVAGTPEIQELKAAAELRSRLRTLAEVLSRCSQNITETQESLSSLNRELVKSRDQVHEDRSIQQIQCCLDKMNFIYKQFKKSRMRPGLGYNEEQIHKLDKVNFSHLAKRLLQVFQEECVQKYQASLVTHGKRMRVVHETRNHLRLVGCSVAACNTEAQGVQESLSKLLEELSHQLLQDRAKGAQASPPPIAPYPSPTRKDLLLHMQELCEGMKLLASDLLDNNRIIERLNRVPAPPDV
Put plainly: TR-FRET enzymatic activity assay, IKKε. Also: full length recombinant IKKε at 0.3 nM. It counts as biochemical. Particulars: read-out: IKKϵ IC50. A digest of the protocol: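 IC50 values are geometric means of at least four determinations, fitted to a four-parameter curve after normalising to 1 μM staurosporine and DMSO. Signal: Eu-cryptate anti-phospho antibody plus 125 nM streptavidin-XL665 on a biotinylated peptide. Full-length recombinant enzyme reacted 240 min, 25 °C, then EDTA-quenched.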

Take `COc1cc(-c2ccnc(NC(=O)C3CC3)c2)cc(C#N)c1OC1CCOCC1` [Example 7, N-(4-(3-cyano-5-methoxy-4-((tetrahydro-2H-pyran-4-yl)oxy)phenyl)pyridin-2-yl)cyclopropanecarboxamide]: the half-maximal inhibitory concentration (IC50) against TBK1 was 492 nM; at IKKε it was over 1000 nM.

With `Cn1cc([C@@H]2C[C@H]2C(=O)Nc2cc(-c3ccc(O[C@H]4CCN(C(=O)CO)C[C@H]4F)c(C#N)c3)ncn2)cn1` [Example 143, (1,2-Trans)-N-(6-(3-cyano-4-(((3R,4S)-3-fluoro-1-(2-hydroxyacetyl)piperidin-4-yl)oxy)phenyl)pyrimidin-4-yl)-2-(1-methyl-1H-pyrazol-4-yl)cyclopropane-1-carboxamide], the IC50 against TBK1 came out at 19.9 nM; on IKKε, 44.3 nM.

As for `N#Cc1cc(-c2cc(NC(=O)C3CC3)ncn2)ccc1O[C@H]1CCN(C(=O)c2cnco2)C[C@H]1F` [Example 33, N-(6-(3-cyano-4-(((3R,4S)-3-fluoro-1-(oxazole-5-carbonyl)piperidin-4-yl)oxy)phenyl)pyrimidin-4-yl)cyclopropanecarboxamide], the values for the IC50 at TBK1 and on IKKε were 47.6 nM and 167 nM, respectively.

Regarding `N#Cc1cc(-c2cc(NC(=O)C3CC3)ncn2)ccc1O[C@H]1CCN(C(=O)[C@@H](O)CO)CC1(F)F` [Example 22, N-(6-(3-cyano-4-(((S)-1-((S)-2,3-dihydroxypropanoyl)-3,3-difluoropiperidin-4-yl)oxy)phenyl)pyrimidin-4-yl)cyclopropanecarboxamide], the half-maximal inhibitory concentration (IC50) is 2.8 nM on TBK1 and 9 nM at IKKε.

As to `N#Cc1cc(-c2cc(NC(=O)C3CC3)ncc2F)ccc1OC1CCOCC1` [Example 4, N-(4-(3-cyano-4-((tetrahydro-2H-pyran-4-yl)oxy)phenyl)-5-fluoropyridin-2-yl)cyclopropanecarboxamide], the IC50 against TBK1 was determined as 43.6 nM; at IKKε, 327 nM.

For `Cn1cc([C@@H]2C[C@H]2C(=O)Nc2cc(-c3ccc(O[C@H]4CCN(C(=O)CO)C[C@H]4F)c(C#N)c3)ccn2)cn1` (single isomer, unassigned) [Example 125], the 50% inhibitory concentration (IC50) against TBK1 was found to be 18.9 nM; on IKKε, 31.4 nM.

`N#Cc1cc(-c2ccnc(NC(=O)C3CC34CC4)c2)ccc1OC1CCOCC1` (stereo not shown) [Example 48, N-(4-(3-cyano-4-((tetrahydro-2H-pyran-4-yl)oxy)phenyl)pyridin-2-yl)spiro[2.2]pentane-1-carboxamide]: the IC50 against TBK1 was determined as 268 nM; on IKKε it was 512 nM.

As for `N#Cc1cc(-c2cc(NC(=O)C3CC3)ncn2)ccc1O` [Example 109, N-(6-(3-cyano-4-hydroxyphenyl)pyrimidin-4-yl)cyclopropanecarboxamide], the IC50 was 826 nM against TBK1 and over 1000 nM on IKKε.

Take `N#Cc1cc(-c2cc(NC(=O)C3CC3)ncn2)ccc1C(=O)NCC(F)F` [Example 53, 2-cyano-4-(6-(cyclopropanecarboxamido)pyrimidin-4-yl)-N-(2,2-difluoroethyl)benzamide]: the half-inhibitory concentration (IC50) on TBK1 is 762 nM; at IKKε, over 1000 nM.

For the compound `N#Cc1cc(-c2ccnc(NC(=O)C3CC3C#N)c2)ccc1O[C@H]1CCN(C(=O)CO)C[C@H]1F` (stereo partly drawn) [Example 67, 2-Cyano-N-(4-(3-cyano-4-(((3R,4S)-3-fluoro-1-(2-hydroxyacetyl)piperidin-4-yl)oxy)phenyl)pyridin-2-yl)cyclopropane-1-carboxamide], the half-inhibitory concentration (IC50) is 26.1 nM against TBK1 and 68.4 nM on IKKε.

In the case of `Cn1cc([C@@H]2C[C@H]2C(=O)Nc2cc(-c3ccc(O[C@H]4CCN(C(=O)CO)CC4(F)F)c(C#N)c3)ccn2)cn1` [Example 121, (1R,2R)—N-(4-(3-cyano-4-(((S)-3,3-difluoro-1-(2-hydroxyacetyl)piperidin-4-yl)oxy)phenyl)pyridin-2-yl)-2-(1-methyl-1H-pyrazol-4-yl)cyclopropane-1-carboxamide], the figures for the concentration for half-maximal inhibition (IC50) on TBK1 and on IKKε were 7.2 nM and 6.2 nM, respectively.

Consider `N#Cc1cc(-c2ccnc(NC(=O)C3CC3c3ccco3)c2)ccc1OC1CCOCC1` (stereo not shown) [Example 51, N-(4-(3-cyano-4-((tetrahydro-2H-pyran-4-yl)oxy)phenyl)pyridin-2-yl)-2-(furan-2-yl)cyclopropane-1-carboxamide], for which the values for the 50% inhibitory concentration (IC50) on TBK1 and at IKKε were 57.8 nM and 426 nM, respectively.

`N#Cc1cc(-c2ccnc(NC(=O)[C@H]3C[C@H]3F)c2)ccc1N1CCC(O)CC1` [Example 65, (1R,2R)—N-(4-(3-cyano-4-(4-hydroxypiperidin-1-yl)phenyl)pyridin-2-yl)-2-fluorocyclopropane-1-carboxamide]: the half-maximal inhibitory concentration (IC50) against TBK1 is 470 nM; on IKKε, over 1000 nM.

On to `CON(C)C(=O)[C@@H]1C[C@H]1C(=O)Nc1cc(-c2ccc(OC3CCOCC3)c(C#N)c2)ccn1` (relative stereo) [Example 38], for which the half-inhibitory concentration (IC50) on TBK1 came to 305 nM; at IKKε, 253 nM.

For `N#Cc1cc(-c2ccnc(NC(=O)[C@@H]3C[C@H]3c3ccc(C4CC4)nc3)c2)ccc1O[C@H]1CCN(C(=O)CO)CC1(F)F` [Example 115, (1R,2R)—N-(4-(3-cyano-4-(((S)-3,3-difluoro-1-(2-hydroxyacetyl)piperidin-4-yl)oxy)phenyl)pyridin-2-yl)-2-(6-cyclopropylpyridin-3-yl)cyclopropane-1-carboxamide], the figures for the half-maximal inhibitory concentration (IC50) at TBK1 and on IKKε were 8.1 nM and 7.1 nM, respectively.

With `N#Cc1cc(-c2ccnc(NC(=O)[C@@H]3C[C@H]3F)c2)ccc1O[C@H]1CCN(C(=O)CO)C[C@H]1F` [Example 62, (1S,2R)—N-(4-(3-cyano-4-(((3R,4S)-3-fluoro-1-(2-hydroxyacetyl)piperidin-4-yl)oxy)phenyl)pyridin-2-yl)-2-fluorocyclopropanecarboxamide], the 50% inhibitory concentration (IC50) amounted to 16.7 nM on TBK1 and 16.2 nM on IKKε.

Regarding `N#Cc1cc(-c2ccnc(NC(=O)[C@@H]3C[C@H]3c3cncnc3)c2)ccc1O[C@H]1CCN(C(=O)CO)C[C@H]1F` [Example 149, (1,2-Trans)-N-(4-(3-cyano-4-(((3R,4S)-3-fluoro-1-(2-hydroxyacetyl)piperidin-4-yl)oxy)phenyl)pyridin-2-yl)-2-(pyrimidin-5-yl)cyclopropane-1-carboxamide], the values for the IC50 against TBK1 and at IKKε were 15.9 nM and 99.2 nM, respectively.

Take `N#Cc1cc(-c2ccnc(NC(=O)C3CC3)c2)ccc1O[C@H]1CCN(C(=O)CO)C[C@H]1F` [Example 8, N-(4-(3-cyano-4-(((3R,4S)-3-fluoro-1-(2-hydroxyacetyl)piperidin-4-yl)oxy)phenyl)pyridin-2-yl)cyclopropanecarboxamide]: the values for the IC50 against TBK1 and at IKKε were 10.4 nM and 25.1 nM, respectively.

In the case of `Cc1cc([C@@H]2C[C@H]2C(=O)Nc2cc(-c3ccc(OC4CCOCC4)c(C#N)c3)ccn2)on1` (relative stereo) [Example 47, (1,2-trans)-N-(4-(3-cyano-4-((tetrahydro-2H-pyran-4-yl)oxy)phenyl)pyridin-2-yl)-2-(3-methylisoxazol-5-yl)cyclopropane-1-carboxamide], the IC50 against TBK1 is 29.4 nM; at IKKε, 269 nM.

Take `CO[C@@H]1CCN(c2ccc(-c3ccnc(NC(=O)C4CC4)c3)cc2C#N)C1` [Example 97, (R)—N-(4-(3-cyano-4-(3-methoxypyrrolidin-1-yl)phenyl)pyridin-2-yl)cyclopropanecarboxamide]: the concentration for half-maximal inhibition (IC50) against TBK1 was found to be 270 nM; at IKKε, 477 nM.

In general, IC50 refers to the concentration that inhibits the measured activity by half.
